Data as given in patent US6608082B1, “Treatment of erectile dysfunction using isoquinoline compound melanocortin receptor ligands” (Lion Bioscience AG, priority 1998, dated 2003).
Read-outs that look alike come from different tables or passages of the source.

What was measured:
MCR-4 = biological target: T1, MCR-4 (Homo sapiens, UniProt P32245); test: Melanocortin receptor binding assay, competition with 125I-HP 467, HEK 293 cells expressing hMCR-4; settings: inhibition of binding of 125I-HP 467, HEK 293 cells expressing MCR-4; for IC50: read-out: MC-4 IC50
T1 construct: expressed in transfected cells; host or cells: HEK 293
T1 sequence (P32245 whole entry): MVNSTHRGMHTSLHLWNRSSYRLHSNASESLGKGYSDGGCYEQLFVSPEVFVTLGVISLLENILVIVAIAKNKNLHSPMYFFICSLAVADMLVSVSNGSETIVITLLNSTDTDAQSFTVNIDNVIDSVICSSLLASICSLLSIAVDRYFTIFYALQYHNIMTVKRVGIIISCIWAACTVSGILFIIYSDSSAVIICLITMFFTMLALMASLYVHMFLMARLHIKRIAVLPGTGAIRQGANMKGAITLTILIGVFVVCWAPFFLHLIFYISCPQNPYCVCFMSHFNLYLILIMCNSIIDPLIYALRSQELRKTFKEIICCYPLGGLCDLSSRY
Summary of the method: (§1)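 Test compounds compete on intact HEK 293 cells carrying hMCR-1 (2×10^4 per tube) or hMCR-4 (4×10^3 per tube), suspended in PBS, 10% calf serum, 1 mM CaCl2.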

MCR-1 = biological target: T2, MCR-1 (Homo sapiens, UniProt Q01726); test: Melanocortin receptor binding assay, competition with 125I-HP 467, HEK 293 cells expressing hMCR-1; settings: inhibition of binding of 125I-HP 467, HEK 293 cells expressing MCR-1; for IC50: read-out: MC-1 IC50
T2 construct: expressed in transfected cells; host or cells: HEK 293
T2 sequence (Q01726 whole entry): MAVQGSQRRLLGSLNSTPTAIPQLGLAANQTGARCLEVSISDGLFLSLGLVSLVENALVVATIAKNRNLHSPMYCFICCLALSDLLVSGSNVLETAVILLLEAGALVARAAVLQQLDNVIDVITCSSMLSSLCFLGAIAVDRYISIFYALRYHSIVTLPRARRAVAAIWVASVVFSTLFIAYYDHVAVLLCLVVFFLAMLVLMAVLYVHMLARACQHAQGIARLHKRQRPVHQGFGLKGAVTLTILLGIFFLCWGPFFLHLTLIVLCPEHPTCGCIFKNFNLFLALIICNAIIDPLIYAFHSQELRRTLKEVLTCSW
Summary of the method: as §1

SMILES | IC50 (MCR-4; TRG 2414 library) [nM] | IC50 (MCR-1; TRG 2414 library) [nM] | IC50 (MCR-4) [nM] | IC50 (MCR-1) [nM] | other results
NCC(N)CCCCN1Cc2ccccc2C(CNC2CCCCC2)C1c1ccc(Oc2ccccc2)cc1 (stereo not shown) [TRG 2414-157] | 4110 | 1120 | – | – | –
NCC(CCCCN1Cc2ccccc2C(CNC2CCCCC2)C1c1ccc(Oc2ccccc2)cc1)NCc1ccccc1 (stereo not shown) [TRG 2414-159] | 9820 | 1400 | – | – | –
CC(C)Cc1ccc(C(C)CNC(CN)CCCCN2Cc3ccccc3C(CNC3CCCCC3)C2c2ccc(Oc3ccccc3)cc2)cc1 (stereo not shown) [TRG 2414-160] | – | 17500 | – | – | MC-4 IC50 (MCR-4; TRG 2414 library): no fit
CCCOc1ccc(C2C(CNCc3ccccc3C(F)(F)F)c3ccccc3CN2CCCCC(N)CN)cc1 (stereo not shown) [TRG 2414-161] | 11000 | 7980 | – | – | –
CCCOc1ccc(C2C(CNCc3ccccc3C(F)(F)F)c3ccccc3CN2CCCCC(CN)NCc2ccccc2)cc1 (stereo not shown) [TRG 2414-163] | 22600 | 2730 | – | – | –
CCCOc1ccc(C2C(CNCc3ccccc3C(F)(F)F)c3ccccc3CN2CCCCC(CN)NCC(C)c2ccc(CC(C)C)cc2)cc1 (stereo not shown) [TRG 2414-164] | – | – | – | – | MC-4 IC50 (MCR-4; TRG 2414 library): no fit; MC-1 IC50 (MCR-1; TRG 2414 library): no fit
CCCOc1ccc(C2C(CNCc3ccccc3OCC)c3ccccc3CN2CCCCC(CN)NCCc2ccccc2)cc1 (stereo not shown) [TRG 2414-166] | 8580 | 6820 | – | – | –
CCCOc1ccc(C2C(CNCc3ccccc3OCC)c3ccccc3CN2CCCCC(CN)NCc2ccccc2)cc1 (stereo not shown) [TRG 2414-167] | 7030 | 2160 | – | – | –
CCCOc1ccc(C2C(CNCc3ccccc3OCC)c3ccccc3CN2CCCCC(CN)NCC(C)c2ccc(CC(C)C)cc2)cc1 (stereo not shown) [TRG 2414-168] | 44400 | 21800 | – | – | –
CCCOc1ccc(C2C(CNCCc3ccccc3OC)c3ccccc3CN2CCCCC(N)CN)cc1 (stereo not shown) [TRG 2414-169] | 5340 | 518 | – | – | –
CCCOc1ccc(C2C(CNCCc3ccccc3OC)c3ccccc3CN2CCCCC(CN)NCCc2ccccc2)cc1 (stereo not shown) [TRG 2414-170] | 7340 | 1770 | – | – | –
CCCOc1ccc(C2C(CNCCc3ccccc3OC)c3ccccc3CN2CCCCC(CN)NCc2ccccc2)cc1 (stereo not shown) [TRG 2414-171] | 4800 | 1100 | – | – | –
CCCOc1ccc(C2C(CNCCc3ccccc3OC)c3ccccc3CN2CCCCC(CN)NCC(C)c2ccc(CC(C)C)cc2)cc1 (stereo not shown) [TRG 2414-172] | 39600 | 15700 | – | – | –
CCCOc1ccc(C2C(CNCCc3cccc(Cl)c3)c3ccccc3CN2CCCCC(N)CN)cc1 (stereo not shown) [TRG 2414-173] | 4220 | 1960 | – | – | –
CCCOc1ccc(C2C(CNCCc3cccc(Cl)c3)c3ccccc3CN2CCCCC(CN)NCc2ccccc2)cc1 (stereo not shown) [TRG 2414-175] | 6080 | 4140 | – | – | –
CCCOc1ccc(C2C(CNCCc3cccc(Cl)c3)c3ccccc3CN2CCCCC(CN)NCC(C)c2ccc(CC(C)C)cc2)cc1 (stereo not shown) [TRG 2414-176] | – | 21900 | – | – | MC-4 IC50 (MCR-4; TRG 2414 library): no fit
CCCOc1ccc(C2C(CNCc3cccc(OC)c3)c3ccccc3CN2CCCCC(CN)NCCc2ccccc2)cc1 (stereo not shown) [TRG 2414-178] | 8130 | 2180 | – | – | –
CCCOc1ccc(C2C(CNCc3cccc(OC)c3)c3ccccc3CN2CCCCC(CN)NCc2ccccc2)cc1 (stereo not shown) [TRG 2414-179] | 5480 | 998 | – | – | –
CCCOc1ccc(C2C(CNCc3ccc(OC)cc3)c3ccccc3CN2CCCCC(N)CN)cc1 (stereo not shown) [TRG 2414-181] | 6830 | 468 | – | – | –
CCCOc1ccc(C2C(CNCc3ccc(OC)cc3)c3ccccc3CN2CCCCC(CN)NCCc2ccccc2)cc1 (stereo not shown) [TRG 2414-182] | 4110 | 1480 | – | – | –

SMILES | IC50 (MCR-4; TRG 2414 library) [nM] | IC50 (MCR-1; TRG 2414 library) [nM] | IC50 (MCR-4) [nM] | IC50 (MCR-1) [nM] | other results
CCCOc1ccc(C2C(CNCc3ccc(OC)cc3)c3ccccc3CN2CCCCC(CN)NCc2ccccc2)cc1 (stereo not shown) [TRG 2414-183] | 4950 | 1090 | – | – | –
CCCOc1ccc(C2C(CNCc3ccc(OC)cc3)c3ccccc3CN2CCCCC(CN)NCC(C)c2ccc(CC(C)C)cc2)cc1 (stereo not shown) [TRG 2414-184] | 27900 | 17000 | – | – | –
CCCCNc1ccc(C2C(CO)c3ccccc3CN2CCCC(CN)NCCC2CCCCC2)cc1 (stereo not shown) [TRG 2415-1] | – | – | 5040 | 1930 | –
NCC(CCCN1Cc2ccccc2C(CO)C1c1ccc(O)cc1)NCCC1CCCCC1 (stereo not shown) [TRG 2415-2] | – | – | 940 | 2240 | –
CCOc1ccc(C2C(CO)c3ccccc3CN2CCCC(CN)NCCC2CCCCC2)cc1 (stereo not shown) [TRG 2415-3] | – | – | 2380 | 1440 | –
CC(C)Oc1ccc(C2C(CO)c3ccccc3CN2CCCC(CN)NCCC2CCCCC2)cc1 (stereo not shown) [TRG 2415-5] | – | – | 960 | 2520 | –
CCCCOc1ccc(C2C(CO)c3ccccc3CN2CCCC(CN)NCCC2CCCCC2)cc1 (stereo not shown) [TRG 2415-6] | – | – | 5000 | 2390 | –
CCc1ccc(C2C(CO)c3ccccc3CN2CCCC(CN)NCCC2CCCCC2)cc1 (stereo not shown) [TRG 2415-7] | – | – | 2130 | 4800 | –
CCCCCc1ccc(C2C(CO)c3ccccc3CN2CCCC(CN)NCCC2CCCCC2)cc1 (stereo not shown) [TRG 2415-8] | – | – | 13800 | 6210 | –
NCC(CCCN1Cc2ccccc2C(CN)C1c1ccc(O)cc1)NCCC1CCCCC1 (stereo not shown) [TRG 2415-9] | – | – | 1950 | 3000 | –
CCOc1ccc(C2C(CN)c3ccccc3CN2CCCC(CN)NCCC2CCCCC2)cc1 (stereo not shown) [TRG 2415-10] | – | – | 1760 | 460 | –
CCCOc1ccc(C2C(CN)c3ccccc3CN2CCCC(CN)NCCC2CCCCC2)cc1 (stereo not shown) [TRG 2415-11] | – | – | 1520 | 441 | –
CCCCOc1ccc(C2C(CN)c3ccccc3CN2CCCC(CN)NCCC2CCCCC2)cc1 (stereo not shown) [TRG 2415-12] | – | – | 3890 | 677 | –
CCc1ccc(C2C(CN)c3ccccc3CN2CCCC(CN)NCCC2CCCCC2)cc1 (stereo not shown) [TRG 2415-13] | – | – | 870 | 1830 | –
CCCCCc1ccc(C2C(CN)c3ccccc3CN2CCCC(CN)NCCC2CCCCC2)cc1 (stereo not shown) [TRG 2415-14] | – | – | 9390 | 1690 | –
CCNC(CN)CCCCN1Cc2ccccc2C(CN)C1c1ccc(O)cc1 (stereo not shown) [TRG 2415-15] | – | – | 63900 | – | MC-1 IC50 (MCR-1): no fit
CCNC(CN)CCCCN1Cc2ccccc2C(CN)C1c1ccc(OCC)cc1 (stereo not shown) [TRG 2415-16] | – | – | 3990 | 1330 | –
CCCOc1ccc(C2C(CN)c3ccccc3CN2CCCCC(CN)NCC)cc1 (stereo not shown) [TRG 2415-17] | – | – | 9350 | 581 | –
CCNC(CN)CCCCN1Cc2ccccc2C(CN)C1c1ccc(CC)cc1 (stereo not shown) [TRG 2415-19] | – | – | 2040 | 1460 | –
CCCCCc1ccc(C2C(CN)c3ccccc3CN2CCCC[C@@H](CN)NCC)cc1 (stereo partly shown) [TRG 2415-20] | – | – | 4540 | 273 | –

SMILES | IC50 (MCR-4; TRG 2414 library) [nM] | IC50 (MCR-1; TRG 2414 library) [nM] | IC50 (MCR-4) [nM] | IC50 (MCR-1) [nM] | other results
CCNc1ccc(C2C(CNCCc3ccccc3)c3ccccc3CN2CCCC(CN)NCCCCNc2ccccc2)cc1 (stereo not shown) [TRG 2419-1] | – | – | 3010 | 110 | –
CCNc1ccc(C2C(CNCCc3ccccc3)c3ccccc3CN2CCCC(CN)NCCCCNCc2ccccc2)cc1 (stereo not shown) [TRG 2419-3] | – | – | 2150 | 49 | –
CCNc1ccc(C2C(CNCCc3ccccc3)c3ccccc3CN2CCCC(CN)NCCCCN(CC)CC)cc1 (stereo not shown) [TRG 2419-4] | – | – | 14400 | 58 | –
CCNc1ccc(C2C(CN)c3ccccc3CN2CCCC(CN)NCCCCNCc2ccccc2)cc1 (stereo not shown) [TRG 2419-6] | – | – | 6410 | 82 | –
CCNc1ccc(C2C(CN)c3ccccc3CN2CCCC(CN)NCCCCN(CC)CC)cc1 (stereo not shown) [TRG 2419-7] | – | – | 10100 | 141 | –
CCNc1ccc(C2C(CN)c3ccccc3CN2CCCC(CN)NCCCCO)cc1 (stereo not shown) [TRG 2419-8] | – | – | 6910 | 1090 | –
CCNc1ccc(C2C(CN)c3ccccc3CN2CCCC(CN)NCCCCNc2ccccc2)cc1 (stereo not shown) [TRG 2419-9] | – | – | 10000 | 239 | –
CCNc1ccc(C2C(CN)c3ccccc3CN2CCCC(CN)NCCCCNC(C)(C)C)cc1 (stereo not shown) [TRG 2419-10] | – | – | 4320 | 93 | –
CCNc1ccc(C2C(CN)c3ccccc3CN2CCCC(CN)NCCCCN)cc1 (stereo not shown) [TRG 2419-11] | – | – | 18400 | 199 | –
CCNc1ccc(C2C(CN)c3ccccc3CN2CCCC(CN)NCCCCNCCc2ccccc2)cc1 (stereo not shown) [TRG 2419-12] | – | – | 16700 | 73 | –
CCNc1ccc(C2C(CN)c3ccccc3CN2CCCC(CN)NCCCCN2CCCCC2)cc1 (stereo not shown) [TRG 2419-13] | – | – | 2510 | 73 | –
CCNc1ccc(C2C(CNCCc3ccccc3)c3ccccc3CN2CCCC(CN)NCCCCCNC(C)C)cc1 (stereo not shown) [TRG 2420-1] | – | – | 1500 | 46 | –
CCNc1ccc(C2C(CNCCc3ccccc3)c3ccccc3CN2CCCC(CN)NCCCCCNCc2ccccc2)cc1 (stereo not shown) [TRG 2420-2] | – | – | 4050 | 76 | –
CCNc1ccc(C2C(CNCCc3ccccc3)c3ccccc3CN2CCCC(CN)NCCCCCN(CC)CC)cc1 (stereo not shown) [TRG 2420-3] | – | – | 8230 | 30 | –
CCNc1ccc(C2C(CNCCc3ccccc3)c3ccccc3CN2CCCC(CN)NCCCCCNCCc2ccccc2)cc1 (stereo not shown) [TRG 2420-4] | – | – | 4170 | 68 | –
CCNc1ccc(C2C(CNCCc3ccccc3)c3ccccc3CN2CCCC(CN)NCC2CC2CNC(C)C)cc1 (stereo not shown) [TRG 2420-5] | – | – | 9880 | 43 | –
CCNc1ccc(C2C(CNCCc3ccccc3)c3ccccc3CN2CCCC(CN)NCC2CC2CNCc2ccccc2)cc1 (stereo not shown) [TRG 2420-6] | – | – | 5130 | 103 | –
CCNc1ccc(C2C(CNCCc3ccccc3)c3ccccc3CN2CCCC(CN)NCC2CC2CN(CC)CC)cc1 (stereo not shown) [TRG 2420-7] | – | – | 1810 | 63 | –
CCNc1ccc(C2C(CNCCc3ccccc3)c3ccccc3CN2CCCC(CN)NCC2CC2CNCCc2ccccc2)cc1 (stereo not shown) [TRG 2420-8] | – | – | 2360 | 208 | –
